Reference: patent publication US20120029187A1, “HALOALKYLSULFONANILIDE DERIVATIVE” (Nissan Chemical Industries, Ltd., priority 2009, published 2012)

Experiments:
Type in all cases: in vivo
[1] = system: giant foxtail; test: Test Example 3: herbicidal effects in soil treatment
How it was run: (§1)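 Seeds were sown in sterilized diluvial soil and covered with about 1.5 cm of soil. Compounds, formulated as emulsifiable concentrates and diluted with water, were sprayed evenly over the soil surface at set doses in g/a. Herbicidal effect was scored on a rating scale three weeks later.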

[2] = system: Italian ryegrass; test: as above
How it was run: as §1

[3] = system: velvetleaf; test: as above; conditions: dose 3.2 g/a
How it was run: as §1

[4] = system: common ragweed; test: as above; conditions: dose 3.2 g/a
How it was run: as §1

[5] = system: barnyardgrass; test: as above
How it was run: as §1

[6] = system: common chickweed; test: as above
How it was run: as §1

[7] = system: wild oat; test: as above
How it was run: as §1

[8] = system: redroot pigweed; test: as above
How it was run: as §1

[9] = system: beadstraw; test: as above
How it was run: as §1

[10] = system: common lambsquater; test: as above
How it was run: as §1

[11] = system: water foxtail; test: as above
How it was run: as §1

[12] = system: large crabgrass; test: as above
How it was run: as §1

[13] = system: ducksalad; test: Test Example 2: herbicidal effects during the vegetation period under submerged conditions; conditions: treatment during the vegetation period under submerged conditions; dose 2.52 g/a
How it was run: (§2)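 Barnyardgrass, bulrush and ducksalad were co-sown in alluvial soil flooded to 4 cm and grown in a greenhouse at 25 to 30° C. At the 1- or 2-leaf stage, water-diluted emulsifiable concentrates went onto the water surface at set doses (g/a). Herbicidal effect was scored three weeks later on a graded scale.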

[14] = system: barnyardgrass; test: as above; conditions: treatment during the vegetation period under submerged conditions; dose 2.52 g/a
How it was run: as §2

[15] = system: bulrush; test: as above; conditions: treatment during the vegetation period under submerged conditions; dose 2.52 g/a
How it was run: as §2

[16] = system: giant foxtail; test: Test Example 4: herbicidal effect in foliage treatment; conditions: three weeks after application
How it was run: (§3)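 Doses are given in grams per are of applied compound, sprayed as water-diluted emulsifiable concentrate onto foliage of 14-day-old plants grown at 25 to 30° C. Herbicidal activity was assessed visually on a rating scale after three weeks.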

[17] = system: Italian ryegrass; test: as above; conditions: three weeks after application
How it was run: as §3

[18] = system: velvetleaf; test: as above; conditions: dose 3.2 g/a, three weeks after application
How it was run: as §3

[19] = system: common ragweed; test: as above; conditions: three weeks after application
How it was run: as §3

[20] = system: barnyardgrass; test: as above; conditions: three weeks after application
How it was run: as §3

[21] = system: common chickweed; test: as above; conditions: three weeks after application
How it was run: as §3

[22] = system: wild oat; test: as above; conditions: three weeks after application
How it was run: as §3

[23] = system: redroot pigweed; test: as above; conditions: dose 3.2 g/a, three weeks after application
How it was run: as §3

[24] = system: beadstraw; test: as above; conditions: three weeks after application
How it was run: as §3

[25] = system: common lambsquater; test: as above; conditions: three weeks after application
How it was run: as §3

[26] = system: water foxtail; test: as above; conditions: three weeks after application
How it was run: as §3

[27] = system: posumbu knotweed; test: as above; conditions: dose 3.2 g/a, three weeks after application
How it was run: as §3

[28] = system: large crabgrass; test: as above; conditions: three weeks after application
How it was run: as §3

[29] = system: transplanted rice; test: Test Example 1: preemergence treatment under submerged conditions, effect on crop; conditions: dose 2.52 g/a
How it was run: (§4)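 Flooded-paddy preemergence assay; EC diluted with water, surface-applied at weed seeding; doses g/a; rice transplanted at 2.5 leaves; 0–5 mortality score after 3 weeks.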

[30] = system: ducksalad; test: Test Example 1: herbicidal effects in preemergence treatment under submerged conditions; conditions: dose 2.52 g/a
How it was run: as §4

[31] = system: barnyardgrass; test: as above; conditions: dose 2.52 g/a
How it was run: as §4

[32] = system: bulrush; test: as above; conditions: dose 2.52 g/a
How it was run: as §4

## CCOC(=O)N(c1ccccc1CN1CC(C)(C)OCC1=O)S(=O)(=O)C(F)(F)F [Compound I-16]
[1]; dose 3.2 g/a
  E: giant foxtail, herbicidal effect (evaluation scale 0-5): 5 (mortality of 90% or above (nearly complete death))
[2]; dose 3.2 g/a
  H: Italian ryegrass, herbicidal effect (evaluation scale 0-5): 4 (mortality of at least 70% and less than 90%)
[3]
  I: velvetleaf, herbicidal effect (evaluation scale 0-5): 5 (mortality of 90% or above (nearly complete death))
[4]
  J: common ragweed, herbicidal effect (evaluation scale 0-5): 5 (mortality of 90% or above (nearly complete death))
[5]; dose 3.2 g/a
  A: barnyardgrass, herbicidal effect (evaluation scale 0-5): 5 (mortality of 90% or above (nearly complete death))
[6]; dose 3.2 g/a
  N: common chickweed, herbicidal effect (evaluation scale 0-5): 5 (mortality of 90% or above (nearly complete death))
[7]; dose 3.2 g/a
  F: wild oat, herbicidal effect (evaluation scale 0-5): 3 (mortality of at least 40% and less than 70%)
[8]; dose 3.2 g/a
  K: redroot pigweed, herbicidal effect (evaluation scale 0-5): 5 (mortality of 90% or above (nearly complete death))
[9]; dose 3.2 g/a
  O: beadstraw, herbicidal effect (evaluation scale 0-5): 0 (mortality of less than 5% (almost ineffective))
[10]; dose 3.2 g/a
  L: common lambsquater, herbicidal effect (evaluation scale 0-5): 3 (mortality of at least 40% and less than 70%)
[11]; dose 3.2 g/a
  G: water foxtail, herbicidal effect (evaluation scale 0-5): 5 (mortality of 90% or above (nearly complete death))
[12]; dose 3.2 g/a
  D: large crabgrass, herbicidal effect (evaluation scale 0-5): 5 (mortality of 90% or above (nearly complete death))
[13]
  C: ducksalad, herbicidal effect (evaluation scale 0-5): 5 (mortality of 90% or above (nearly complete death))
[14]
  A: barnyardgrass, herbicidal effect (evaluation scale 0-5): 5 (mortality of 90% or above (nearly complete death))
[15]
  B: bulrush, herbicidal effect (evaluation scale 0-5): 5 (mortality of 90% or above (nearly complete death))
[16]; dose 3.2 g/a
  E: giant foxtail, herbicidal effect: 4 (mortality of at least 70% and less than 90%)
[17]; dose 3.2 g/a
  H: Italian ryegrass, herbicidal effect: 4 (mortality of at least 70% and less than 90%)
[18]
  I: velvetleaf, herbicidal effect: 5 (mortality of 90% or above (nearly complete death))
[19]; dose 3.2 g/a
  J: common ragweed, herbicidal effect: 5 (mortality of 90% or above (nearly complete death))
[20]; dose 3.2 g/a
  A: barnyardgrass, herbicidal effect: 5 (mortality of 90% or above (nearly complete death))
[21]; dose 3.2 g/a
  N: common chickweed, herbicidal effect: 5 (mortality of 90% or above (nearly complete death))
[22]; dose 3.2 g/a
  F: wild oat, herbicidal effect: 3 (mortality of at least 40% and less than 70%)
[23]
  K: redroot pigweed, herbicidal effect: 2 (mortality of at least 20% and less than 40%)
[24]; dose 3.2 g/a
  O: beadstraw, herbicidal effect: 3 (mortality of at least 40% and less than 70%)
[25]; dose 3.2 g/a
  L: common lambsquater, herbicidal effect: 2 (mortality of at least 20% and less than 40%)
[26]; dose 3.2 g/a
  G: water foxtail, herbicidal effect: 5 (mortality of 90% or above (nearly complete death))
[27]
  M: posumbu knotweed, herbicidal effect: 3 (mortality of at least 40% and less than 70%)
[28]; dose 3.2 g/a
  D: large crabgrass, herbicidal effect: 4 (mortality of at least 70% and less than 90%)
[29]
  a: transplanted rice, effect on crop (evaluation scale 0-5): 2 (mortality of at least 20% and less than 40%)
[30]
  C: ducksalad, herbicidal effect (evaluation scale 0-5): 5 (mortality of 90% or above (nearly complete death))
[31]
  A: barnyardgrass, herbicidal effect (evaluation scale 0-5): 5 (mortality of 90% or above (nearly complete death))
[32]
  B: bulrush, herbicidal effect (evaluation scale 0-5): 5 (mortality of 90% or above (nearly complete death))

## CCC(=O)N(c1ccccc1CN1COC(C)(C)CC1=O)S(=O)(=O)C(F)(F)F [II-19, 6,6-dimethyl-3-[2-(N-ethylcarbonyl-N-trifluoromethanesulfonyl)aminobenzyl]-1,3-oxazinan-4-one]
[1]; dose 6.3 g/a
  E: giant foxtail, herbicidal effect (evaluation scale 0-5): 2 (mortality of at least 20% and less than 40%)
[2]; dose 6.3 g/a
  H: Italian ryegrass, herbicidal effect (evaluation scale 0-5): 5 (mortality of 90% or above (nearly complete death))
[5]; dose 6.3 g/a
  A: barnyardgrass, herbicidal effect (evaluation scale 0-5): 5 (mortality of 90% or above (nearly complete death))
[6]; dose 6.3 g/a
  N: common chickweed, herbicidal effect (evaluation scale 0-5): 4 (mortality of at least 70% and less than 90%)
[7]; dose 6.3 g/a
  F: wild oat, herbicidal effect (evaluation scale 0-5): 0 (mortality of less than 5% (almost ineffective))
[8]; dose 6.3 g/a
  K: redroot pigweed, herbicidal effect (evaluation scale 0-5): 2 (mortality of at least 20% and less than 40%)
[9]; dose 6.3 g/a
  O: beadstraw, herbicidal effect (evaluation scale 0-5): 4 (mortality of at least 70% and less than 90%)
[10]; dose 6.3 g/a
  L: common lambsquater, herbicidal effect (evaluation scale 0-5): 0 (mortality of less than 5% (almost ineffective))
[11]; dose 6.3 g/a
  G: water foxtail, herbicidal effect (evaluation scale 0-5): 5 (mortality of 90% or above (nearly complete death))
[12]; dose 6.3 g/a
  D: large crabgrass, herbicidal effect (evaluation scale 0-5): 5 (mortality of 90% or above (nearly complete death))
[13]
  C: ducksalad, herbicidal effect (evaluation scale 0-5): 5 (mortality of 90% or above (nearly complete death))
[14]
  A: barnyardgrass, herbicidal effect (evaluation scale 0-5): 5 (mortality of 90% or above (nearly complete death))
[15]
  B: bulrush, herbicidal effect (evaluation scale 0-5): 5 (mortality of 90% or above (nearly complete death))
[16]; dose 6.3 g/a
  E: giant foxtail, herbicidal effect: 4 (mortality of at least 70% and less than 90%)
[17]; dose 6.3 g/a
  H: Italian ryegrass, herbicidal effect: 4 (mortality of at least 70% and less than 90%)
[19]; dose 6.3 g/a
  J: common ragweed, herbicidal effect: 5 (mortality of 90% or above (nearly complete death))
[20]; dose 6.3 g/a
  A: barnyardgrass, herbicidal effect: 5 (mortality of 90% or above (nearly complete death))
[21]; dose 6.3 g/a
  N: common chickweed, herbicidal effect: 4 (mortality of at least 70% and less than 90%)
[22]; dose 6.3 g/a
  F: wild oat, herbicidal effect: 0 (mortality of less than 5% (almost ineffective))
[24]; dose 6.3 g/a
  O: beadstraw, herbicidal effect: 5 (mortality of 90% or above (nearly complete death))
[25]; dose 6.3 g/a
  L: common lambsquater, herbicidal effect: 0 (mortality of less than 5% (almost ineffective))
[26]; dose 6.3 g/a
  G: water foxtail, herbicidal effect: 5 (mortality of 90% or above (nearly complete death))
[28]; dose 6.3 g/a
  D: large crabgrass, herbicidal effect: 4 (mortality of at least 70% and less than 90%)
[29]
  a: transplanted rice, effect on crop (evaluation scale 0-5): 0 (mortality of less than 5% (almost ineffective))
[30]
  C: ducksalad, herbicidal effect (evaluation scale 0-5): 5 (mortality of 90% or above (nearly complete death))
[31]
  A: barnyardgrass, herbicidal effect (evaluation scale 0-5): 5 (mortality of 90% or above (nearly complete death))
[32]
  B: bulrush, herbicidal effect (evaluation scale 0-5): 5 (mortality of 90% or above (nearly complete death))
